From PubChem BioAssay AID1918958 (Molecular Pharmacology Branch, DTP, NCI, 2023)

System: NCI-H196 complex spheroid viability
Test: Anticancer human tumor NCI-H196 cell line growth inhibition [LSD1];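 further: spheroids exposed to agents for 7 days before readout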;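 on viability, T/C: 100% = DMSO vehicle control viability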
Details: for IC50: curve of first compound; for viability, T/C: stronger effect = lower value
Method in brief: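 Complex spheroids of tumor cells with HUVEC and human MSCs, exposed to iadademstat combined with other agents. Each agent tested in half-log steps from near clinical Cmax (else 10 microM top), DMSO ≤0.25%.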

[1] = second compound 0.1 µM, first compound 0.000316 µM
[2] = second compound 0.1 µM, first compound 0.001 µM
[3] = second compound 0.1 µM, first compound 0.00316 µM
[4] = second compound 0.1 µM, first compound 0.01 µM
[5] = second compound 0.1 µM, first compound 0.0316 µM
[6] = second compound 0.1 µM, first compound 0.1 µM
[7] = second compound 0.316 µM, first compound 0.000316 µM
[8] = second compound 0.316 µM, first compound 0.001 µM
[9] = second compound 0.316 µM, first compound 0.00316 µM
[10] = second compound 0.316 µM, first compound 0.01 µM
[11] = second compound 0.316 µM, first compound 0.0316 µM
[12] = second compound 0.316 µM, first compound 0.1 µM
[13] = second compound 1 µM, first compound 0.000316 µM
[14] = second compound 1 µM, first compound 0.001 µM
[15] = second compound 1 µM, first compound 0.00316 µM
[16] = second compound 1 µM, first compound 0.01 µM
[17] = second compound 1 µM, first compound 0.0316 µM
[18] = second compound 1 µM, first compound 0.1 µM
[19] = second compound 3.16 µM, first compound 0.000316 µM
[20] = second compound 3.16 µM, first compound 0.001 µM
[21] = second compound 3.16 µM, first compound 0.00316 µM
[22] = second compound 3.16 µM, first compound 0.01 µM
[23] = second compound 3.16 µM, first compound 0.0316 µM
[24] = second compound 3.16 µM, first compound 0.1 µM
[25] = second compound 10 µM, first compound 0.000316 µM
[26] = second compound 10 µM, first compound 0.001 µM
[27] = second compound 10 µM, first compound 0.00316 µM
[28] = second compound 10 µM, first compound 0.01 µM
[29] = second compound 10 µM, first compound 0.0316 µM
[30] = second compound 10 µM, first compound 0.1 µM
[31] = second compound 0.1 µM, first compound 0.00949 µM
[32] = second compound 0.1 µM, first compound 0.03 µM
[33] = second compound 0.1 µM, first compound 0.0949 µM
[34] = second compound 0.1 µM, first compound 0.3 µM
[35] = second compound 0.1 µM, first compound 0.949 µM
[36] = second compound 0.1 µM, first compound 3 µM
[37] = second compound 0.316 µM, first compound 0.00949 µM
[38] = second compound 0.316 µM, first compound 0.03 µM
[39] = second compound 0.316 µM, first compound 0.0949 µM
[40] = second compound 0.316 µM, first compound 0.3 µM
[41] = second compound 0.316 µM, first compound 0.949 µM
[42] = second compound 0.316 µM, first compound 3 µM
[43] = second compound 1 µM, first compound 0.00949 µM
[44] = second compound 1 µM, first compound 0.03 µM
[45] = second compound 1 µM, first compound 0.0949 µM
[46] = second compound 1 µM, first compound 0.3 µM
[47] = second compound 1 µM, first compound 0.949 µM
[48] = second compound 1 µM, first compound 3 µM
[49] = second compound 3.16 µM, first compound 0.00949 µM
[50] = second compound 3.16 µM, first compound 0.03 µM
[51] = second compound 3.16 µM, first compound 0.0949 µM
[52] = second compound 3.16 µM, first compound 0.3 µM
[53] = second compound 3.16 µM, first compound 0.949 µM
[54] = second compound 3.16 µM, first compound 3 µM
[55] = second compound 10 µM, first compound 0.00949 µM
[56] = second compound 10 µM, first compound 0.03 µM
[57] = second compound 10 µM, first compound 0.0949 µM
[58] = second compound 10 µM, first compound 0.3 µM
[59] = second compound 10 µM, first compound 0.949 µM
[60] = second compound 10 µM, first compound 3 µM

CC(C)CC(NC(=O)C(Cc1ccccc1)NC(=O)c1cnccn1)B(O)O (stereo not given) + NC1CCC(NC2CC2c2ccccc2)CC1
IC50 (second compound 0.1 µM): 0.529 nM | IC50 (second compound 0.316 µM): 0.555 nM | IC50 (second compound 1 µM): 0.572 nM | IC50 (second compound 3.16 µM): 0.508 nM | IC50 (second compound 10 µM): 0.511 nM | viability, T/C [1]: 84.1% | viability, T/C [2]: 7.65% | viability, T/C [3]: 4.44% | viability, T/C [4]: 3.35% | viability, T/C [5]: 1.92% | viability, T/C [6]: 1.52% | viability, T/C [7]: 87.9% | viability, T/C [8]: 10.3% | viability, T/C [9]: 3.34% | viability, T/C [10]: 2.71% | viability, T/C [11]: 2.22% | viability, T/C [12]: 0.68% | viability, T/C [13]: 95.9% | viability, T/C [14]: 6.67% | viability, T/C [15]: 3.82% | viability, T/C [16]: 2.43% | viability, T/C [17]: 2.03% | viability, T/C [18]: 0.58% | viability, T/C [19]: 80.8% | viability, T/C [20]: 5.93% | viability, T/C [21]: 3.18% | viability, T/C [22]: 2.05% | viability, T/C [23]: 2.04% | viability, T/C [24]: 0.46% | viability, T/C [25]: 82.5% | viability, T/C [26]: 4.35% | viability, T/C [27]: 2.41% | viability, T/C [28]: 1.45% | viability, T/C [29]: 0.95% | viability, T/C [30]: 0.47%

CC(C)CC(NC(=O)CNC(=O)c1cc(Cl)ccc1Cl)B1OC(=O)CC(CC(=O)O)(C(=O)O)O1 (stereo not given) + NC1CCC(NC2CC2c2ccccc2)CC1
IC50 (second compound 0.1 µM): 18.6 nM | IC50 (second compound 0.316 µM): 19.5 nM | IC50 (second compound 1 µM): 18.7 nM | IC50 (second compound 3.16 µM): 21.5 nM | IC50 (second compound 10 µM): 20.1 nM | viability, T/C [1]: 107% | viability, T/C [2]: 109% | viability, T/C [3]: 102% | viability, T/C [4]: 78% | viability, T/C [5]: 26.1% | viability, T/C [6]: 8.24% | viability, T/C [7]: 106% | viability, T/C [8]: 106% | viability, T/C [9]: 101% | viability, T/C [10]: 78.5% | viability, T/C [11]: 29.5% | viability, T/C [12]: 8.69% | viability, T/C [13]: 103% | viability, T/C [14]: 105% | viability, T/C [15]: 120% | viability, T/C [16]: 71.9% | viability, T/C [17]: 31.4% | viability, T/C [18]: 7.57% | viability, T/C [19]: 99.5% | viability, T/C [20]: 107% | viability, T/C [21]: 102% | viability, T/C [22]: 85.8% | viability, T/C [23]: 31.9% | viability, T/C [24]: 9.23% | viability, T/C [25]: 102% | viability, T/C [26]: 104% | viability, T/C [27]: 105% | viability, T/C [28]: 75.7% | viability, T/C [29]: 33% | viability, T/C [30]: 6.12%

Nc1ccccc1NC(=O)c1ccc(CNC(=O)OCc2cccnc2)cc1 + NC1CCC(NC2CC2c2ccccc2)CC1
IC50 (second compound 0.1 µM): 62.2 nM | IC50 (second compound 0.316 µM): 59.3 nM | IC50 (second compound 1 µM): 88.6 nM | IC50 (second compound 3.16 µM): 77.4 nM | IC50 (second compound 10 µM): 73.5 nM | viability, T/C [31]: 82.9% | viability, T/C [32]: 66.6% | viability, T/C [33]: 41% | viability, T/C [34]: 12% | viability, T/C [35]: 0.32% | viability, T/C [36]: 1.24% | viability, T/C [37]: 81.2% | viability, T/C [38]: 69.3% | viability, T/C [39]: 36.4% | viability, T/C [40]: 11.9% | viability, T/C [41]: 0.27% | viability, T/C [42]: 0.3% | viability, T/C [43]: 84.8% | viability, T/C [44]: 73.3% | viability, T/C [45]: 49.9% | viability, T/C [46]: 12.2% | viability, T/C [47]: 0.24% | viability, T/C [48]: 0.35% | viability, T/C [49]: 85.3% | viability, T/C [50]: 78.9% | viability, T/C [51]: 43.4% | viability, T/C [52]: 10.2% | viability, T/C [53]: 0.27% | viability, T/C [54]: 0.26% | viability, T/C [55]: 89.7% | viability, T/C [56]: 73.6% | viability, T/C [57]: 44.3% | viability, T/C [58]: 12.1% | viability, T/C [59]: 1.12% | viability, T/C [60]: 0.38%

O=C(C=Cc1cccc(S(=O)(=O)Nc2ccccc2)c1)NO + NC1CCC(NC2CC2c2ccccc2)CC1
IC50 (second compound 0.1 µM): 163 nM | IC50 (second compound 0.316 µM): 139 nM | IC50 (second compound 1 µM): 158 nM | IC50 (second compound 3.16 µM): 145 nM | IC50 (second compound 10 µM): 138 nM | viability, T/C [31]: 99.6% | viability, T/C [32]: 103% | viability, T/C [33]: 75.4% | viability, T/C [34]: 21.1% | viability, T/C [35]: 0.51% | viability, T/C [36]: 0.44% | viability, T/C [37]: 93.9% | viability, T/C [38]: 101% | viability, T/C [39]: 65.8% | viability, T/C [40]: 16.7% | viability, T/C [41]: 0.24% | viability, T/C [42]: 1.63% | viability, T/C [43]: 94.5% | viability, T/C [44]: 93.4% | viability, T/C [45]: 75.4% | viability, T/C [46]: 18.4% | viability, T/C [47]: 0.31% | viability, T/C [48]: 0.36% | viability, T/C [49]: 96.9% | viability, T/C [50]: 92.3% | viability, T/C [51]: 68.5% | viability, T/C [52]: 18.5% | viability, T/C [53]: 0.41% | viability, T/C [54]: 0.27% | viability, T/C [55]: 88.8% | viability, T/C [56]: 89.8% | viability, T/C [57]: 64.7% | viability, T/C [58]: 18.6% | viability, T/C [59]: 0.76% | viability, T/C [60]: 0.84%

O=C(c1cc(Cc2n[nH]c(=O)c3ccccc23)ccc1F)N1CCN(C(=O)C2CC2)CC1 + NC1CCC(NC2CC2c2ccccc2)CC1
IC50 (second compound 0.1 µM): > 10000 nM | IC50 (second compound 0.316 µM): > 10000 nM | IC50 (second compound 1 µM): > 10000 nM | IC50 (second compound 3.16 µM): > 10000 nM | IC50 (second compound 10 µM): > 10000 nM | viability, T/C [5]: 91.8% | viability, T/C [6]: 97.9% | viability, T/C (second compound 0.1 µM, first compound 0.316 µM): 91.7% | viability, T/C (second compound 0.1 µM, first compound 1 µM): 86.5% | viability, T/C (second compound 0.1 µM, first compound 3.16 µM): 93.5% | viability, T/C (second compound 0.1 µM, first compound 10 µM): 88.3% | viability, T/C [11]: 89.8% | viability, T/C [12]: 103% | viability, T/C (second compound 0.316 µM, first compound 0.316 µM): 97.8% | viability, T/C (second compound 0.316 µM, first compound 1 µM): 94.8% | viability, T/C (second compound 0.316 µM, first compound 3.16 µM): 83.4% | viability, T/C (second compound 0.316 µM, first compound 10 µM): 83% | viability, T/C [17]: 89.9% | viability, T/C [18]: 91.4% | viability, T/C (second compound 1 µM, first compound 0.316 µM): 95.6% | viability, T/C (second compound 1 µM, first compound 1 µM): 83.5% | viability, T/C (second compound 1 µM, first compound 3.16 µM): 89% | viability, T/C (second compound 1 µM, first compound 10 µM): 80.1% | viability, T/C [23]: 91% | viability, T/C [24]: 87% | viability, T/C (second compound 3.16 µM, first compound 0.316 µM): 88% | viability, T/C (second compound 3.16 µM, first compound 1 µM): 87.4% | viability, T/C (second compound 3.16 µM, first compound 3.16 µM): 85.7% | viability, T/C (second compound 3.16 µM, first compound 10 µM): 87.5% | viability, T/C [29]: 89.9% | viability, T/C [30]: 90.2% | viability, T/C (second compound 10 µM, first compound 0.316 µM): 88.1% | viability, T/C (second compound 10 µM, first compound 1 µM): 89.5% | viability, T/C (second compound 10 µM, first compound 3.16 µM): 85.7% | viability, T/C (second compound 10 µM, first compound 10 µM): 86.8%
